In the supplement of paper PMC5908809:

What was measured:
Experiment in all cases: relative IC50 (inflection point of fitted viability curve, relative to fitted max inhibition); higher = less sensitive
Conditions in all cases: 72 h
[1] = system: NKL (IL-2 2.5 ng/mL)
Description: (§1)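 Drug sensitivity and resistance testing: 5 concentrations over a 10,000-fold range, 72 h at 37 °C, viability by CellTiter-Glo normalised to DMSO and benzethonium chloride controls. IC50 is the inflection point of a logistic fit (min fixed at 0, max fitted), so it is relative to the fitted maximal inhibition. Kept only where fitted max inhibition is at least 50%.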

[2] = system: normal primary NK cells, pool 3 (3 donors) (IL-2 2.5 ng/mL)
Description: as §1

[3] = system: KAI3 (IL-2 2.5 ng/mL)
Description: as §1

[4] = system: KHYG-1 (IL-2 2.5 ng/mL)
Description: as §1

[5] = system: DERL-7 (IL-2 2.5 ng/mL)
Description: as §1

[6] = system: normal primary NK cells, pool 1 (3 donors) (IL-2 2.5 ng/mL)
Description: as §1

[7] = system: normal primary NK cells, pool 2 (3 donors) (IL-2 2.5 ng/mL)
Description: as §1

[8] = system: IMC-1 (IL-2 20 ng/mL)
Description: as §1

[9] = system: SNK-6 (IL-2 2.5 ng/mL)
Description: as §1

[10] = system: YT (IL-2 2.5 ng/mL)
Description: as §1

[11] = system: NK-YS (IL-2 2.5 ng/mL)
Description: as §1

[12] = system: NK-92 (IL-2 2.5 ng/mL)
Description: as §1

[13] = system: normal primary NK cells, pool 1 (3 donors), resting (IL-2 0 ng/mL)
Description: as §1

| SMILES | relative IC50 [1] [nM] | relative IC50 [2] [nM] | relative IC50 [3] [nM] | relative IC50 [4] [nM] | relative IC50 [5] [nM] | relative IC50 [6] [nM] | relative IC50 [7] [nM] | relative IC50 [8] [nM] | relative IC50 [9] [nM] | relative IC50 [10] [nM] | relative IC50 [11] [nM] | relative IC50 [12] [nM] | relative IC50 [13] [nM] |
| --- | --- | --- | --- | --- | --- | --- | --- | --- | --- | --- | --- | --- | --- |
| CN(C)c1cc2c(cc1Sc1nc3c(N)nccc3n1CCNCC(C)(C)C)OCO2 [CUDC-305] | 293 | 308 | 114 | 243 | 164 | 232 | 208 | 301 | 328 | 302 | 158 | 204 | 199 |
| C[C@@H]1C[C@H]2O[C@@H]2/C=C\C=C\C(=O)Cc2c(Cl)c(O)cc(O)c2C(=O)O1 [Radicicol] | 134 | 132 | 72.1 | 209 | 37.3 | 126 | 75.2 | 310 | 81.8 | 423 | 198 | 130 | 520 |
| O=c1cc(N2CCOCC2)oc2c(-c3ccccc3)cccc12 | 5080 | 16800 | 11500 | 13600 | 5890 | 13400 | 11700 | 35200 | 4830 | 8330 | 9060 | 12300 | 6670 |
| Nc1ncnc2c1nc(N)n2[C@@H]1O[C@H](CO)[C@@H](O)[C@H]1O [8-amino-adenosine] | 360 | 6780 | 320 | 836 | 489 | 6680 | 5810 | 1080 | 68.1 | 862 | 757 | 431 | 13100 |
| CCN(CC)C(=S)SSC(=S)N(CC)CC [Disulfiram] | 256 | 320 | 16200 | 2300 | 194 | 323 | 224 | 1590 | 40300 | 25700 | 987 | 30100 | 309 |
| COC(=O)c1ccc2c(c1)NC(=O)/C2=C(\Nc1ccc(N(C)C(=O)CN2CCN(C)CC2)cc1)c1ccccc1 [Nintedanib] | 902 | 2730 | 1850 | 1720 | 1210 | 1200 | 1580 | 3980 | 4280 | 2580 | 1700 | 1070 | 1010 |
| CN1CC[C@H](c2c(O)cc(O)c3c(=O)cc(-c4ccccc4Cl)oc23)[C@H](O)C1 [Alvocidib] | 126 | 164 | 55.3 | 136 | 174 | 182 | 150 | 410 | 8.41 | 133 | 142 | 117 | 370 |
| COc1cc2c(NC3CCN(C(C)C)CC3)nc(C3CCCCC3)nc2cc1OCCCN1CCCC1 [UNC0638] | 2290 | 3360 | 528 | 2540 | 2120 | 3450 | 3070 | 2780 | 1600 | 3050 | 2570 | 1660 | 2290 |
| COc1ccc(C[C@H](NC(=O)[C@H](C)NC(=O)CN2CCOCC2)C(=O)N[C@@H](Cc2ccccc2)C(=O)C2(C)CO2)cc1 (stereo in doubt) [ONX-0914] | 29 | 61.8 | 18.1 | 142 | 18.7 | 30.6 | 27.4 | 158 | 62.6 | 64.7 | 38.1 | 24.4 | 20.1 |
| CN(c1ccccc1CNc1nc(Nc2ccc3c(c2)CC(=O)N3)ncc1C(F)(F)F)S(C)(=O)=O | 715 | 1950 | 1380 | 553 | 609 | 1130 | 1720 | 1130 | 1600 | 1470 | 1030 | 1710 | 4290 |
| C=CC(=O)Nc1cc2c(Nc3ccc(F)c(Cl)c3)ncnc2cc1OCCCN1CCOCC1 [Canertinib] | 1290 | 1290 | 1100 | 2670 | 1080 | 402 | 710 | 3700 | 2980 | 1970 | 1990 | 1180 | 333 |
| COc1cc([C@@H]2c3cc4c(cc3[C@@H](O[C@@H]3O[C@@H]5CO[C@@H](c6cccs6)O[C@H]5[C@H](O)[C@H]3O)[C@H]3COC(=O)[C@H]23)OCO4)cc(OC)c1O [Teniposide] | 10 | 1250 | 18.8 | 27.8 | 15.5 | 534 | 965 | 20.3 | 32 | 122 | 13.3 | 84.1 | 139 |
| CC(=O)NCC(=O)N1[C@@H]2CC[C@H]1c1ccc(Nc3ncc(C(F)(F)F)c(NC4CCC4)n3)cc12 | 101 | 1310 | 95 | 40.8 | 54.3 | 975 | 766 | 91.9 | 20 | 439 | 111 | 117 | 4400 |
| Nc1ncnc2c1nc(Cl)n2[C@@H]1O[C@H](CO)[C@@H](O)[C@H]1O [8-chloro-adenosine] | 4720 | 7030 | 579 | 2820 | 641 | 5980 | 6010 | 19300 | 330 | 1870 | 1440 | 2610 | 5340 |
| COc1cccc2c1C(=O)c1c(O)c3c(c(O)c1C2=O)C[C@@](O)(C(C)=O)C[C@@H]3O[C@H]1C[C@H](N)[C@H](O)[C@H](C)O1 [Daunorubicin] | 3.74 | 42 | 54.5 | 38.2 | 21.7 | 21.6 | 20.8 | 19.2 | 34.7 | 40.8 | 31.1 | 45.7 | 15.7 |
| O=C(/C=C\n1cnc(-c2cc(C(F)(F)F)cc(C(F)(F)F)c2)n1)NNc1cnccn1 [Selinexor] | 106 | 80.8 | 93.3 | 152 | 65.1 | 76.7 | 52.4 | 497 | 48.3 | 64.1 | 166 | 168 | 24.2 |
| CN1CCN(c2cc(C(=O)Nc3ccc4c(c3)-c3c(c(C(N)=O)nn3-c3ccc(F)cc3)CC4)c(Cl)cn2)CC1 [PHA 408] | 1620 | 2780 | 940 | 2990 | 1350 | 2590 | 2100 | 2970 | 1620 | 1920 | 2440 | 2090 | 2140 |
